This note sets out measurements from patent publication EP0022478B1, “Polyhydro-3,7-dimethyl-8-(2-(tetrahydro-4-hydroxy-6-oxo-2H-pyran-2-yl)-ethyl)-1-naphthylenyl-2-methylbutanoates, corresponding hydroxy acids, process for preparing and pharmaceutical compositions containing the same” (Merck & Co., Inc., priority 1979, dated 1981).

Counter-ions that a name gives are not always drawn. Like-named read-outs stand apart in the source and are kept apart here.

One series addresses T1, HMG-CoA Reductase (Rattus norvegicus, UniProt P51639).
T1 sequence (P51639 1-887): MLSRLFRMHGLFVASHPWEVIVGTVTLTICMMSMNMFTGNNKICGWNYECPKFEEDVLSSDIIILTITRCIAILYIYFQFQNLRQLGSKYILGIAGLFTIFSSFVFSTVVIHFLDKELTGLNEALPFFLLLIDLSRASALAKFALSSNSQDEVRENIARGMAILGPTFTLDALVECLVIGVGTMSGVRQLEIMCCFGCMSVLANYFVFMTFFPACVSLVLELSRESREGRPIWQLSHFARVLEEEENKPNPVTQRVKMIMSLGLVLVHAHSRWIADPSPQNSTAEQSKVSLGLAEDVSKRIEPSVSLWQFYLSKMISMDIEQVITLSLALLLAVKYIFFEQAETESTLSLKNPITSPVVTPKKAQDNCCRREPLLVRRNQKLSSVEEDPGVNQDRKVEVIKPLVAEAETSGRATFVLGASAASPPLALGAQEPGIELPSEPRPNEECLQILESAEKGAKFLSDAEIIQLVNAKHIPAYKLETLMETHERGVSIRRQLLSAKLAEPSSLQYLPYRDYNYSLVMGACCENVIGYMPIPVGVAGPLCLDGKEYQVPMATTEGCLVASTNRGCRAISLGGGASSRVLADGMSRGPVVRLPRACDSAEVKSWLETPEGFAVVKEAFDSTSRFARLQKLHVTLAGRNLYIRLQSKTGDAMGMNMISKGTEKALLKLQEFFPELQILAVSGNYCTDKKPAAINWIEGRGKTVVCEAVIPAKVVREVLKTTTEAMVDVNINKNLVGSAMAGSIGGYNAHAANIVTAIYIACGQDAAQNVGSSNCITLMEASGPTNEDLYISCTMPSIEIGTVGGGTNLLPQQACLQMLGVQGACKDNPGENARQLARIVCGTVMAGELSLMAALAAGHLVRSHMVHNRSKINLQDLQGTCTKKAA
Put plainly: In vitro inhibition of HMG Coenzyme A reductase, Beg method modified by 5 min preincubation of enzyme with inhibitor. In kind it is biochemical. The following applies: modified procedure; read-out: IC50 in inhibiting HMG-CoA Reductase.

Series [1] in a line: Stability of the hydroxy acid on standing.
The next series concerns the target T2, mouse L―M cells (Mus musculus, UniProt Q01237).
T2 sequence (Q01237 1-887): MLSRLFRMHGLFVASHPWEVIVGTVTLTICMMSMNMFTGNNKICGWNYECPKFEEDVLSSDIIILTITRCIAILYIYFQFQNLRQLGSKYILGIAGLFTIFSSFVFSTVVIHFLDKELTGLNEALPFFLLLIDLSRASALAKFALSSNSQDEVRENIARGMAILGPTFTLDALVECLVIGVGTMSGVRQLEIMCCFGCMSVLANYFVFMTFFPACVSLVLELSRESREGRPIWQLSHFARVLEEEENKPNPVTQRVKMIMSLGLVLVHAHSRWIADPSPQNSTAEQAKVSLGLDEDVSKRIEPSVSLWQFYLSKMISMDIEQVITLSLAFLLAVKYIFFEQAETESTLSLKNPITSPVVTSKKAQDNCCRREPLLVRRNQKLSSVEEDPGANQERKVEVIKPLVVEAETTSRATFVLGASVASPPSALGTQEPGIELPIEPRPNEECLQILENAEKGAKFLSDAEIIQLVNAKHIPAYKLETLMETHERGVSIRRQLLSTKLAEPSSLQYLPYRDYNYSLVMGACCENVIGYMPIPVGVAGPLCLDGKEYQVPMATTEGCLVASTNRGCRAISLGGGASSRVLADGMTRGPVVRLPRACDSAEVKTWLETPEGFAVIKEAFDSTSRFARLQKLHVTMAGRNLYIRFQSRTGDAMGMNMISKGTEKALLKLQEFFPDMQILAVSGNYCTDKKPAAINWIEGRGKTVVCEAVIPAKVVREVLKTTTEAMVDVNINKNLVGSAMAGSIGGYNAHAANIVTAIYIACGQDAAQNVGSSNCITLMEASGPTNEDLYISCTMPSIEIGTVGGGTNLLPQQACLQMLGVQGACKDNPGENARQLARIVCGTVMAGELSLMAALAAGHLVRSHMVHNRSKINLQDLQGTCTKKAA
Put plainly: Inhibition of sterol synthesis in cell culture (14C sterol from 14C acetic acid). The series is classed as cell-based. As to the method: The procedure of A. W. Alberts et al., J. Biol. Chem. 249: 5241 (1974) measuring the quantity of ^14C sterol biosynthesis frofdm ^14C acetic acid in mouse L―M cells in culture was employed with modification. The test compound in 10 µl DMSO was added to the monolayer cultures with 5 µCi of ^14C acetate. After a 3 hour incubation, the cells were saponified and the ^14C sterol extracted and isolated by thin layer chromatography on silica gel using petroleum ether-diethyl ether-acetic acid (75:25:1). The region on the plate containing ^14C sterol was identified by staining with 12 and the ^14C content determined by liquid scintillation counting.

The test system of a further series is cholesterol synthesis. Put plainly: In vivo inhibition of cholesterol synthesis (14C acetate into 14C cholesterol). Details: species or system male Holtzman rats. Particulars: 14C acetate IP after one hour, bled 50 minutes later. On the procedure:
Groups of male Holtzman rats were dosed with either 5% emulphor in saline or test compound in emulphor by stomach tube. After one hour 80 µCi of ^14C acetate/kg was given IP. The rats were bled 50 minutes later and ^14C cholesterol was determined as a measure of sterol synthesis: […]

[2] abbreviates: mouse L-M cell monolayers, 3 hour incubation with 14C acetate; read-out: IC50 in inhibiting HMG-CoA reductase.

Method for HMG-CoA Reductase: The method of Beg et al., FEBS Letters, 80 123 (1977) was modified slightly by incubating the enzyme with the inhibitor for five minutes before initiating the reaction with the substrate.

On to `CCC(C)C(=O)O[C@H]1C[C@@H](C)C[C@@H]2C=C[C@H](C)[C@H](CC[C@@H](O)C[C@@H](O)CC(=O)O)[C@@H]12` (stereo partly drawn) [sodium salt of Compound IV], for which the IC50 at HMG-CoA Reductase came to 0.0027 µM. As for `CCC(C)C(=O)OC1CC(C)CC2C=CC(C)C(CCC(O)CC(O)CC(=O)O)C21` (stereo not drawn) [Compound IV], in series [1], the “stability of hydroxy acid on standing” value is reported as “slowly reverts to the lactone”.

For `CCC(C)C(=O)O[C@H]1C[C@@H](C)C=C2C=C[C@H](C)[C@H](CC[C@@H]3C[C@@H](O)CC(=O)O3)[C@H]21` (stereo partly drawn) [Compound I], at mouse L―M cells (read-out: IC50 in inhibiting HMG-CoA reductase; mouse L-M cell monolayers, 3 hour incubation with 14C acetate), the IC50 came to 0.022 µM. Take `CCC(C)C(=O)O[C@H]1C[C@@H](C)C[C@@H]2C=C[C@H](C)[C@H](CC[C@@H]3C[C@@H](O)CC(=O)O3)[C@@H]12` (stereo partly drawn) [Compound II]: the “% Inhibition” value was found to be 38% in the series on cholesterol synthesis (dose 0.15 mg/kg by stomach tube), 51% in the series with cholesterol synthesis (dose 0.6 mg/kg by stomach tube) and 70% in the series on cholesterol synthesis (dose 1.2 mg/kg by stomach tube). Besides, the IC50 at mouse L―M cells (setting [2]) was found to be 0.017 µM.

In the case of `CC[C@H](C)C(=O)O[C@H]1CCC=C2C=C[C@H](C)[C@H](CC[C@@H]3C[C@@H](O)CC(=O)O3)[C@H]21` [ML236B, compactin, reference compound], the values for the IC50 on HMG-CoA Reductase and on mouse L―M cells (setting [2]) were 0.0054 µM and 0.046 µM, respectively.

Usually IC50 stands for the concentration needed to halve the response being measured. What is called % Inhibition is how much of the control response was suppressed. A higher % Inhibition goes with strong suppression.
